Results taken from patent publication US5869494A, “Uses for barbituric acid analogs” (priority 1997, dated 1999).

System: breast tumor
Test: Human tumor cloning system, breast tumors
Assay type: cell-based
Conditions: responsive = at least 50% inhibition of tumor colony formation
Protocol: Through the initial work of Hamburger and Salmon (1977 a,b), it is possible to culture human tumors using a two-layer soft agar system. This culture system, called the human tumor cloning system, was initially utilized to select the most appropriate anticancer agent for an individual patient's tumor. […] In an in vitro-in vivo correlation study involving 800 patients retrospectively, it was determined that the true positive rate for this assay was 70%, while the true negative rate for the assay was 98% (Von Hoff et al., 1981). In a more recent prospective clinical trial of the cloning system involving 604 patients, the percent true positive for the assay was 64%, while the percent true negative for the assay was 86% (Von Hoff et al., 1983). […] This system was used to study the response of compound C1 for breast cancer and non-small cell lung carcinoma.
Collection and preparation of tumor cells: After obtaining informed consent in accordance with federal and institutional guidelines, malignant effusions, ascites and bone marrow aspirates containing tumor cells as well as solid tumor specimens were collected from patients undergoing procedure carried out as a part of their diagnostic workup or as part of treatment for their disease. […] The viability of cell suspensions thus obtained was determined with trypan blue.
Tumor cells to be cloned were suspended in 0.3% agar in enriched CMRL 1066 medium (Gibco, Grand Island, N.Y.) supplemented with 15% heat-inactivated horse serum, penicillin (100 units/ml), streptomycin (2 mg/ml) glutamine (2 mM), insulin (3 units/ml), asparagine (0.6 mg/ml), and HEPES buffer (2 mM). […] After an incubation period of 14 days, plates were removed and the number of colonies were counted in each plate. The number of colonies (defined as >50 cells) formed were compared in drug treated and untreated (control) plates and the percent colonies surviving at each drug dose tested was then calculated as a percentage of control. […]

CCCCN1C(=O)CC(=O)N(CCCC)C1=S [Compound C1, 4,6(1H, 5H)-pyrimidinedione, 1,3-dibutyldihydro-2-thioxo]
# responsive tumors/total # evaluated (75 μg/ml): 3/8 | # responsive tumors/total # evaluated (100 μg/ml): 4/8 | # responsive tumors/total # evaluated (125 μg/ml): 6/8
